# Values of other authors in patent US6472228B2, “Composition and methods for synthesis of novel tracers for detecting amphetamine and methamphetamine in samples” (Lifepoint, Inc., priority 2000, dated 2002).
# Conditions: GC/MASS
structure (smiles),measurement,value
CN[C@@H](C)Cc1ccccc1 [methamphetamine],detectable in saliva samples after the last dose,up to 2 days
